Test results: patent US7063948B1, “Uses of antibodies against AChE and peptides thereof” (Yissum Research Development Company of the Hebrew …, priority 1999, dated 2006)

Experiment: Evans Blue dye penetration into brain after confined swim stress
Assay type: in vivo
Settings: FIG. 6A
Excerpt: The above results were confirmed in animal experiments.

Cc1cc(-c2ccc(/N=N/c3ccc4c(S(=O)(=O)O)cc(S(=O)(=O)O)c(N)c4c3O)c(C)c2)ccc1/N=N/c1ccc2c(S(=O)(=O)O)cc(S(=O)(=O)O)c(N)c2c1O [Evans Blue]
dye penetration into the brain (nonstressed control mice): very low levels
dye penetration into the brain (stressed mice): a large amount of the dye penetrates the brain
